Reference: patent US9949956B2, “Compounds, compositions, and methods for preventing metastasis of cancer cells” (Aerpio Therapeutics, Inc., priority 2009, dated 2018)
Several values for one entry are separate records, joined by “and”; a condition that tells them apart may be missing. Identical values can stand only once.

What was measured:
[1] = test system: H460-GFP human tumor cells; assay: In vivo anti-metastasis study, surgical orthotopic implantation of H460-GFP tumor fragments on the lung; design: species or system NCr nu/nu male mice; settings: for Evidence of Metastasis (individual mouse): mice No. 1-10; for # mice with metastases: ten mice per group
Description: A total of 50 NCr nu/nu male mice aged 5-6 weeks were selected for the following in vivo test. H460-GFP human tumor cells were grown subcutaneously in NCr nu/nu male mice after which the resulting tumors were harvested. Subsequent to harvesting, recipient NCr nu/nu mice of this study had tumor fragments transplanted by surgical orthotopic implantation (SOI). Each animal was anesthetized is isofurane and the surgical area was sterilized with iodine and alcohol. A transverse incision approximately 1.5 cm long was made in the left chest wall of the mice using a pair of surgical scissors. An intercostal incision was made between the third and the fourth costa and the left lung was exposed. Two pieces of H460-GFP tumor fragments were transplanted to the surface of the lung with 8-0 surgical nylon suture. […]. The lung was re-inflated by the intrathoracic puncture using 3 cc syringe with 25 G 11⁄2 needle to draw out the remaining air in the chest cavity. The chest wall was closed with 6-0 surgical silk sutures. All procedures of the operation described above were performed with a 7× magnification microscope (Olympus) under HEPA filtered laminar flow hoods. The treated mice were divided into five groups containing ten mice each. Group I (Control) received 100 μL the drug vehicle twice daily for 15 days. Group II received 15 mg/kg of taxol intravenously at days 6, 9, 12, and 15. […] Group IV received 10 mg/kg of taxol intravenously at days 6, 9, 12, and 15 and 15 mg/kg of the Test Compound twice per day from day 3 to day 15. Group V received 15 mg/kg of the Test Compound twice per day from day 3 to day 15. All animals were sacrificed on day 28. Each animal was checked twice a week for primary tumor and metastasis via GFP open imaging of the mediastinal lymph nodes. No metastasis was found on any other organs. Six mice from the control group died before the end of the study, but were evaluated for tumor and/or cellular metastasis.

B16 melanoma cells = assay: In vivo anticancer study, B16 melanoma; design: species or system C57BL/6 mice
Description: The effectiveness of the disclosed compounds as a treatment for melanoma was studied. C57BL/6 mice (6-8 weeks-old, female, Taconic Farm) were inoculated with B16 melanoma cells (5×10^4 cells/site, s.c.). […] Tumor volumes were recorded. […] Tumor volumes were recorded.

Renca renal cancer cells = assay: In vivo anticancer study, renal cell carcinoma (Renca); design: species or system Balb/c mice; settings: FIG. 1 and FIG. 2
Description: The effectiveness of the disclosed compounds as a treatment against renal cell carcinoma was studied. Balb/c mice (6-8 weeks-old, female, Taconic Farm) were inoculated with Renca renal cancer cells (5×10^5 cells/site). […] Tumor volumes were recorded.

[2] = test system: MiaPaCa-2-RFP tumor fragments; assay: In vivo pancreatic cancer study, surgical orthotopic implantation of MiaPaCa-2-RFP tumor fragments; design: species or system NCr nu/nu males; settings: FIG. 9
From the text: The effectiveness of the disclosed compounds as a treatment for pancreatic cancer was investigated. 60 NCr nu/nu males, 5-6 weeks old were transplanted by surgical orthotopic implantation (SOI) using MiaPaCa-2-RFP tumor fragments harvested from stock animals. The animals were anesthetized with isoflurane and the surgical area was sterilized using iodine and alcohol. An incision approximately 1.5 cm long was made in the left upper abdomen of the nude mouse using a pair of surgical scissors. […] The abdomen was closed with 6-0 surgical sutures (silk). All procedures of the operation described above were performed with a 7× magnification microscope (Olympus) under HEPA filtered laminar flow hoods. Dosing of the animals began three days following tumor implantation. The high dose of gemcitabine was 150 mg/kg. The low dose of gemcitabine was 100 mg/kg. […] was given at 20 mg/kg. […] The animals were divided into the following groups often animals each as depicted in Table XXII.

Row | Structure (SMILES) | Evidence of Metastasis (individual mouse) ([1]; Group V: D91 15 mg/kg twice per day, day 3 to 15, 15 mg/kg) | # mice with metastases ([1]; Group V: D91 15 mg/kg twice per day, day 3 to 15) | B16 melanoma tumor volume (B16 melanoma cells; 40 mg/kg b.i.d. D91 alone versus vehicle control, FIG. 8) | tumor volume (B16 melanoma cells; high dose of IL-2 (300,000 IU/mouse, bid, i.p.) in combination with high dose of D91 (40 mg/kg, bid, s.c.), compared to high dose IL-2 alone, FIG. 3) | tumor volume (B16 melanoma cells; low dose of IL-2 (100,000 IU/mouse, bid, i.p.) in combination with high dose of D91 (40 mg/kg, bid, s.c.) versus control, FIG. 6) | reducing tumor volume, compared with IL-2 (Renca renal cancer cells; D91 40 mg/kg bid s.c. versus IL-2 100,000 IU/mouse bid i.p.) | renal tumor growth (Renca renal cancer cells; D91 40 mg/kg, bid, s.c. alone) | tumor volume (Renca renal cancer cells; combination of D91 (40 mg/kg, bid, s.c.) and IL-2 (100,000 IU/mouse, bid, i.p.)) | pancreatic tumor volume ([2]; D91 20 mg/kg s.c. twice daily alone, day 28) | tumor volume ([2]; combination of low dose gemcitabine (100 mg/kg i.p.) and 20 mg/kg D91, compared with either alone) | Evidence of Metastasis (individual mouse) ([1]; Group II: taxol 15 mg/kg i.v. at days 6, 9, 12, 15, GFP open imaging of mediastinal lymph nodes) | # mice with metastases ([1]; Group II: taxol 15 mg/kg i.v. at days 6, 9, 12, 15)
1 | COC(=O)N[C@@H](Cc1ccccc1)C(=O)N[C@@H](Cc1ccc(NS(=O)(=O)O)cc1)c1csc(-c2cccs2)n1 [D91, 4-{(S)-2-[(S)-2-(Methoxycarbonylamino)-3-phenylpropanamido]-2-[2-(thiophen-2-yl)thiazol-4-yl]ethyl}phenylsulfamic acid] | Yes (2×) and No (8×) | 2 | effectiveness | significantly reduced tumor volume as compared to high dose of IL-2 | significantly reduced tumor volume versus control | as effective as IL-2 in reducing tumor volume | significantly reduced renal tumor growth | further reduced tumor volume | significant reduction in pancreatic tumor volume | greater reduction in tumor volume | – | –
2 | CC(=O)O[C@H]1C(=O)[C@@]2(C)[C@H]([C@H](OC(=O)c3ccccc3)[C@]3(O)C[C@H](OC(=O)[C@H](O)[C@@H](NC(=O)c4ccccc4)c4ccccc4)C(C)=C1C3(C)C)[C@]1(OC(C)=O)CO[C@@H]1C[C@@H]2O [taxol, reference compound] | – | – | – | – | – | – | – | – | – | – | No (9×) and Yes | 1
